The text below walks through data of US20250136576A1, “Heterocyclic Compounds and Uses Thereof” (ACEA Therapeutics, Inc., priority 2021, published 2025).

For this assay, the system named is KM12-luc cells. Kind of assay: Cell proliferation and growth inhibition assay (CCK-8) in KM12-luc. In kind it is cell-based. To be noted: KM12-Luc, 72 h, KM12-luc cells, treated with test compounds for 72 hrs, CCK-8 viability; read-out: NTRK IC50 in KM12-luc. The procedure, abridged:
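Cells were grown at 37 °C, 5% CO2 with 10% FBS: MV-4-11 in IMDM, H1975 in RPMI 1640, KM12-luc in DMEM. Viability was read by CCK-8 (1-4 hrs reagent incubation, absorbance at OD450). IC50 came from a non-linear sigmoidal dose-response fit.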
For `Cc1cccc2c(-c3nc(Nc4ccc(N(C)CCN(C)C)c(N)c4)ncc3C(F)(F)F)cn(C)c12` [Compound 369, N^4-(4-(1,7-dimethyl-1H-indol-3-yl)-5-(trifluoromethyl)pyrimidin-2-yl)-N^1-(2-(dimethylamino)ethyl)-N^1-methylbenzene-1,2,4-triamine], the 50% inhibitory concentration (IC50) stood at 27.6 nM.

For `CC(=O)Nc1cc(Nc2ncc(C(F)(F)F)c(-c3cn(C)c4c(C)cccc34)n2)ccc1N(CCN(C)C)C(C)=O` [Compound 370, N-(2-acetamido-4-((4-(1,7-dimethyl-1H-indol-3-yl)-5-(trifluoromethyl)pyrimidin-2-yl)amino)phenyl)-N-(2-(dimethylamino)ethyl)acetamide], the IC50 was 77.1 nM.

Turning to `Cc1cccc2c(-c3nc(Nc4ccc5c(c4)nc(C)n5CCN(C)C)ncc3C(F)(F)F)cn(C)c12` [Compound 371, N-(4-(1,7-dimethyl-1H-indol-3-yl)-5-(trifluoromethyl)pyrimidin-2-yl)-1-(2-(dimethylamino)ethyl)-2-methyl-1H-benzo[d]imidazol-5-amine], the IC50 is 110 nM.

On to `CC(=O)Nc1cc(Nc2ncc(C(F)(F)F)c(-c3cn(C)c4c(C)cccc34)n2)ccc1OCCN(C)C` [Compound 372, N-(5-((4-(1,7-dimethyl-1H-indol-3-yl)-5-(trifluoromethyl)pyrimidin-2-yl)amino)-2-(2-(dimethylamino)ethoxy)phenyl)acetamide], for which the IC50 amounted to 30.2 nM.

For the molecule `COc1cccc2c(-c3nc(Nc4ccc(N(CCN(C)C)C(C)=O)c(NC(C)=O)c4)ncc3C(F)(F)F)c[nH]c12` [Compound 379, N-(2-acetamido-4-((4-(7-methoxy-1H-indol-3-yl)-5-(trifluoromethyl)pyrimidin-2-yl)amino)phenyl)-N-(2-(dimethylamino)ethyl)acetamide], the IC50 amounted to 149 nM.

Turning to `COc1cccc2c(-c3nc(Nc4ccc5c(c4)nc(C)n5CCN(C)C)ncc3C(F)(F)F)c[nH]c12` [Compound 380, 1-(2-(dimethylamino)ethyl)-N-(4-(7-methoxy-1H-indol-3-yl)-5-(trifluoromethyl)pyrimidin-2-yl)-2-methyl-1H-benzo[d]imidazol-5-amine], the IC50 is 50.5 nM.

For `COc1cccc2c(-c3nc(Nc4ccc(N(C)CCN(C)C)c(N)c4)ncc3C(F)(F)F)cn(C)c12` [Compound 385, N^1-(2-(dimethylamino)ethyl)-N^4-(4-(7-methoxy-1-methyl-1H-indol-3-yl)-5-(trifluoromethyl)pyrimidin-2-yl)-N^1-methylbenzene-1,2,4-triamine], the IC50 was 45.3 nM.

Turning to `COc1cccc2c(-c3nc(Nc4ccc(N(CCN(C)C)C(C)=O)c(NC(C)=O)c4)ncc3C(F)(F)F)cn(C)c12` [Compound 386, N-(2-acetamido-4-((4-(7-methoxy-1-methyl-1H-indol-3-yl)-5-(trifluoromethyl)pyrimidin-2-yl)amino)phenyl)-N-(2-(dimethylamino)ethyl)acetamide], the IC50 amounted to 43.9 nM.

Consider `COc1cccc2c(-c3nc(Nc4ccc5c(c4)nc(C)n5CCN(C)C)ncc3C(F)(F)F)cn(C)c12` [Compound 387, 1-(2-(dimethylamino)ethyl)-N-(4-(7-methoxy-1-methyl-1H-indol-3-yl)-5-(trifluoromethyl)pyrimidin-2-yl)-2-methyl-1H-benzo[d]imidazol-5-amine], for which the IC50 is 114 nM.

For `COc1cccc2c(-c3nc(Nc4ccc(OCCN(C)C)c(NC(C)=O)c4)ncc3C(F)(F)F)cn(C)c12` [Compound 388, N-(2-(2-(dimethylamino)ethoxy)-5-((4-(7-methoxy-1-methyl-1H-indol-3-yl)-5-(trifluoromethyl)pyrimidin-2-yl)amino)phenyl)acetamide], the IC50 came out at 44.8 nM.

Regarding `CCn1cc(-c2nc(Nc3ccc(N(C)CCN(C)C)c(NC(C)=O)c3)ncc2C(F)(F)F)c2cc(F)ccc21` [Compound 391, N-(2-((2-(dimethylamino)ethyl)(methyl)amino)-5-((4-(1-ethyl-5-fluoro-1H-indol-3-yl)-5-(trifluoromethyl)pyrimidin-2-yl)amino)phenyl)acetamide], the IC50 was 50 nM.
